From patent US9011863B2, “Combinations of kinase inhibitors for the treatment of cancer” (Exelixis, Inc., priority 2010, dated 2015)
pIC50: −log10 of the molar value.

How the values were obtained:
[1] = test system: receptors of tyrosine kinase (RTKs) in BT474 cells; test: phospho-RTK arrays and RTK qPCR in BT474 cells; assay type: cell-based, human
Method: FIG. 19B depicts a photomicrograph of BT474 cells were treated with 6 μM compound A over a time course up to 24 hours as indicated. Cell lysates were prepared, and 200 μg of total protein were hybridized to arrays containing probes for 42 different receptors of tyrosine kinase (RTKs).
FIG. 19C depicts a photomicrograph of BT474 cells were treated with 6 μM compound A over a time course up to 24 hours as indicated.
FIG. 19D depicts a bar-graph representing the amount of RTK mRNA as identified using real-time qPCR analysis of the indicated RTKs in RNA collected from BT474 cells treated with either DMSO or 10 μM compound A for 6 hours.
Immunoprecipitation, immunoblotting, and RTK assays were performed according to published methods. Primary antibodies included AKT, pAKT^S473, pAKT^T308, ERK, pERK^T202/Y204, pHER2^Y1248, pHER3^Y1197, pHER3^Y1222, pHER3^Y1289, S6, pS6^S240/244, p27, pRb^S780, FoxO1, FoxO3a, MEK1/2 (Cell Signaling Technology, Danvers, Mass., USA), p85, 4G10 pTyr (Millipore, Billerica, Mass., USA), HER3, CyclinD1, RhoA, HDAC3 (Santa Cruz Biotechnology, Santa Cruz, Calif., USA), PARP (BD Transduction Laboratories), β-actin (Sigma, St. Louis, Mo., USA), and HER2 (Neomarkers, division of Thermo Scientific, Freemenot, Calif., USA). […] Immunoreactive signals were detected by enhanced chemilluminsecence (Pierce, Rockford, Ill., USA). […]

[2] = molecular target: p110α catalytic subunit of PI3K (Homo sapiens, UniProt P42336); test: in vitro PI3K assay (PI3K-induced ATP consumption); assay type: biochemical; conditions: read-out: in vitro IC50 against p110α
Chain of p110α catalytic subunit of PI3K (P42336 whole entry): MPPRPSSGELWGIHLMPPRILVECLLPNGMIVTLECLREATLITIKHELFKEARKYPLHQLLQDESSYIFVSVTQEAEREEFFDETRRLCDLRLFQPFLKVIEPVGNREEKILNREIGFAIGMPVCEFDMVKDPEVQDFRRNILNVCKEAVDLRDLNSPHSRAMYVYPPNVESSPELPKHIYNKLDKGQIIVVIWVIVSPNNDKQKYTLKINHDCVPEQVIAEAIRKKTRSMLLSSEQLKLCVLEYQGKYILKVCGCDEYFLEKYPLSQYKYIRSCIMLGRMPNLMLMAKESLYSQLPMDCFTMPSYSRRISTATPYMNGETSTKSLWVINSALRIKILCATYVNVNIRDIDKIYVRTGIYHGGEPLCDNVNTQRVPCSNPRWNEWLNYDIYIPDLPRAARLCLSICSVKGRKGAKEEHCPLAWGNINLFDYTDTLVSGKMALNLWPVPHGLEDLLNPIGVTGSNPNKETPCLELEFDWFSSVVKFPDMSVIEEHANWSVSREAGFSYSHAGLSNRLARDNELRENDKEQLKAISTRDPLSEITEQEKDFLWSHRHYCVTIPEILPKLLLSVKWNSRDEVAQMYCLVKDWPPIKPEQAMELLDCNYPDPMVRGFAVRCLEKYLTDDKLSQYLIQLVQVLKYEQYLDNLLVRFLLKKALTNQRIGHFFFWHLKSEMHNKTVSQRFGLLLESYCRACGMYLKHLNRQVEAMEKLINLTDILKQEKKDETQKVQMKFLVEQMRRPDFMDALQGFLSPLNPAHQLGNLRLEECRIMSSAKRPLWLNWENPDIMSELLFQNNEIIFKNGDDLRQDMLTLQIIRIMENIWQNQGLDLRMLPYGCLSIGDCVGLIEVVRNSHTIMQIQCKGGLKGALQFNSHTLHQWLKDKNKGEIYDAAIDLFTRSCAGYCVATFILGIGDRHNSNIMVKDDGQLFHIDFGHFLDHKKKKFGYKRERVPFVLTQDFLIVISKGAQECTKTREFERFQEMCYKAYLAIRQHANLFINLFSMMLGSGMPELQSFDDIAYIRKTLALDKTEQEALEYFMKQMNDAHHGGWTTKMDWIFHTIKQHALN
Chain of p110α catalytic subunit of PI3K (P27986 whole entry partner): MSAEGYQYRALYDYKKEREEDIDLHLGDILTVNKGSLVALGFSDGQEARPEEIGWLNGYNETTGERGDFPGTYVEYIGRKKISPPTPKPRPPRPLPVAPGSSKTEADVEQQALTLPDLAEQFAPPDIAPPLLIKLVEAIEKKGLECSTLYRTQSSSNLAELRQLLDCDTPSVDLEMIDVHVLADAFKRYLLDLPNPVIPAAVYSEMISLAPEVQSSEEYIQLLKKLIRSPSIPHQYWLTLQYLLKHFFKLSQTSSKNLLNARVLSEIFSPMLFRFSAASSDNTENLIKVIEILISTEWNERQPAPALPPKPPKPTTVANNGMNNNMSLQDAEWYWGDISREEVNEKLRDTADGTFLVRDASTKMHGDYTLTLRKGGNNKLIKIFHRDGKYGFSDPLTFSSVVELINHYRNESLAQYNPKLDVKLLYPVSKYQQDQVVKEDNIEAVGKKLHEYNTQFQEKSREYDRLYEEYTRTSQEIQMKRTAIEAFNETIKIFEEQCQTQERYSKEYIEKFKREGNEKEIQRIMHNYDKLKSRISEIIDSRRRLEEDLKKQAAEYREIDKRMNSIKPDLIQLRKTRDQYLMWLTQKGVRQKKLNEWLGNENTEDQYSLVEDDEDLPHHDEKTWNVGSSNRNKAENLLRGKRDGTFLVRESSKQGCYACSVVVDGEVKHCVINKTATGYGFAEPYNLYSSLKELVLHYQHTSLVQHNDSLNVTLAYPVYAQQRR
From the text: Compounds of formula I have been tested using the assay described in Biological Example 1 of WO2007044729 and have been determined to be PI3K inhibitors. As such, compounds of formula I are useful for treating diseases, particularly cancer in which PI3K activity contributes to the pathology and/or symptomatology of the disease. For example, cancer in which PI3K activity contributes to its pathology and/or symptomatology include breast cancer, colon cancer, rectal cancer, endometrial cancer, gastric carcinoma, glioblastoma, hepatocellular carcinoma, small cell lung cancer, non-small cell lung cancer, melanoma, ovarian cancer, pancreatic cancer, prostate carcinoma, acute myelogenous leukemia (AML), chronic myelogenous leukemia (CML), and thyroid carcinoma, and the like.
Suitable in vitro assays for measuring PI3K activity and the inhibition thereof by compounds are known. Typically, the assay will measure PI3K-induced ATP consumption. […] Cellular activity can be determined using assays as described in Biological Examples 2, 3, and 4 of WO2007044729. […]
The purpose of the present study is to identify kinases and kinase-regulated signaling pathways that compensate for PI3K inhibition in human breast cancer cells. […] Gene expression from three independent experiments was measured using the Gene titan 3′ microarray. *, p<0.05; **, p<0.01 versus 0 hours, as shown in FIG. 5. […]

[3] = test system: subcutaneous A-549 human lung xenografts; test: antitumor activity in A549 xenografts; assay type: in vivo, Swiss nude mice; conditions: for activity rating: compound A at 30 mg/kg PO daily (text), 30 mg/kg
From the text: Control groups were left untreated.
Animal body weights included the tumor weights.

[4] = test system: HER3 mRNA; test: real-time qPCR of HER3 mRNA; assay type: cell-based, human; conditions: BT474, SKBR3, MDA453 cells; 6 μM; time course up to 48 hours
Method: FIG. 12B depicts a bar chart of timed HER3 mRNA transcription in BT474 cells which were treated with 2 μM 5J8, 20 μM LY294002, and 50 nM rapamycin for 10 hours prior to RNA isolation and qPCR analysis with HER3-specific primers.

[5] = test system: BT474 xenografts; test: BT474 xenograft experiments; assay type: in vivo, mice; conditions: trastuzumab 30 mg/kg twice-a-week i.p.; lapatinib 100 mg/kg daily; compound A 100 mg/kg daily gavage; 28 days
Method: Tumor volumes were recorded twice-a-week. Each data point represents the mean tumor volume in mm^3±SE of 8 mice per type of treatment. CR=complete response to treatment.
Animal experiments were approved by the Institutional Animal Care Committee of Vanderbilt University Medical Center (VUMC). Mice were housed in the accredited Animal Care Facility of the VUMC. A 17β-estradiol pellet (Innovative Research of America) was injected subcutaneously (s.c.) into each 6- to 7-week-old athymic female mice (Harlan Sprague Dawley, Inc.) the day before tumor cell injection. BT474 cells (3×10^6) mixed 1:1 with Matrigel (BD Biosciences) were injected s.c. into the right flank of each mouse. Tumor diameters were measured with calipers twice-a-week and volume in mm^3 calculated with the formula: volume=width^2×length/2. […] Mice were euthanized after 28 days of treatment.
There was no significant drug-related toxicity in any of the treatment arms.

[6] = Compound A PO 5 (160) mg/kg Q1Dx32
[7] = Compound A PO 100 (3200) mg/kg Q1Dx32

COc1ccc(Cl)c(Nc2nc3ccccc3nc2NS(=O)(=O)c2cccc(NC(=O)C(C)(C)N)c2)c1 [Compound A]
phospho-RTK arrays ([1]; BT474, 6 μM, 24-h time course): increase in not only HER3, but also multiple other RTKs | RTK mRNAs by qPCR ([1]; BT474, 10 μM, 6 hours): increase in ERBB4, IGF-IR, InsR, EphA1, FGFR2, and FGFR3 mRNAs | pIC50 [2]: 7.41 | Biological response at day 68 [3, 6]: Very | Median ΔT/ΔC in % day 68 [3, 6]: 5% | Biological response at day 68 [3, 7]: highly active | Median % of regression on day 68 [3, 7]: 15% | Median ΔT/ΔC in % day 68 [3, 7]: −4% | Biological response at day 68 ([3]; Compound A PO 100 (3200) mg/kg Q1Dx32, listed as compound A): high activity | ΔT/ΔC (treated vs control tumor volume change) ([3]; compound A at 30 mg/kg PO daily): 5% | activity rating [3]: very active | activity rating ([3]; listed as compound A): high activity | HER3 mRNA levels [4]: increase in HER3 mRNA that appeared maximal at 6 hours and was maintained up to 48 hours | tumor growth, monotherapy [5]: significantly delayed tumor growth
